The data set deals with wildtype NRF2 gene in the H1703 cell line. Nature of the data set: TIDE indel efficiency of R34G sgRNA at various lengths in H1703 parental cells. The settings on record: for total indel efficiency: 250 pmol sgRNA to 50 pmol Cas9, 72 hours. In kind it is cell-based, human. The protocol:
H1703 parental cells were cultured 48 hours prior to transfections and about 60-80% confluent on the day of transfection. 10^6 cells per 100 ul was used per transfection and each condition was run in duplicate.
Each CRISPR/Cas9 RNP was complexed at a 5:1 ratio of sgRNA to Cas9. 250 pmol of sgRNA was complexed at room temperature with 50 pmol of Cas9, in duplicate. The RNP complex was then transfected into H1703 parental cells using nucleofection (Lonza) with the SF Nucleofection Kit. Transfected cells were plated and allowed to recover for 72 hours. After the 72 hours, each sample of cells was collected by trypsinization and pelleted for further analysis. Cell pellets were used for genomic DNA isolation, PCR and Sanger sequencing.
It has been reported that gRNA length can affect target specificity (Fu et al., Nat. Biotechnol. 32:279-84 (2014)). The efficiency of indel formation of the various length R34G sgRNAs to the wildtype “on-target” site was evaluated. sgRNAs for each length were synthetized and complexed with purified Cas9. Replicate experiments were carried out with H1703 lung squamous cells that were transfected with each RNP, recovered for 72 hours, then analyzed for indel formation. No R34G site is present in the wildtype NRF2 gene in the H1703 cell line, therefore only minimal or background gene editing activity is expected.

For the sequence “AAGATATAGATCTTGGAGTAAG (listed as DNA, chemistry not given here) [22 nucleotide length sgRNA]”, where the note is “first value (replicate 1)”, the sequence remaining wildtype is given as 98.2% and the total indel efficiency worked out at 1.2%. Also, under “replicate 2”, the sequence remaining wildtype is given as 96.5% and the total indel efficiency came out at 2.3%.
Consider “ATAGATCTTGGAGTAAG (listed as DNA, chemistry not given here) [17 nucleotide length sgRNA]”, for which, where the note is “first value (replicate 1)”, the sequence remaining wildtype came out at 98.0% and the total indel efficiency is given as 1.5%. Also, for the setting “replicate 2”, the sequence remaining wildtype was 97.7% and the total indel efficiency is listed as 1.6%.
The like results for “CAAGATATAGATCTTGGAGTAAG (listed as DNA, chemistry not given here) [23 nucleotide length sgRNA]” were, in that order, 95.8%, 3.4%, 95.2% and 3.8%.
As for “GATATAGATCTTGGAGTAAG (listed as DNA, chemistry not given here) [20 nucleotide length sgRNA]”, where the note is “first value (replicate 1)”, the sequence remaining wildtype amounted to 98.4% and the total indel efficiency is reported as 0.8%. In addition, where the note is “replicate 2”, the sequence remaining wildtype was found to be 96.2% and the total indel efficiency stood at 2.9%.
Turning to “TATAGATCTTGGAGTAAG (listed as DNA, chemistry not given here) [18 nucleotide length sgRNA]”, for the setting “first value (replicate 1)”, the sequence remaining wildtype is recorded as 97.4% and the total indel efficiency was 1.9%. Further, for the setting “replicate 2”, the sequence remaining wildtype is given as 96.6% and the total indel efficiency amounted to 2.6%.

These data come from patent publication US11505797B2, “Gene knockout of variant NRF2 for treatment of cancer” (Christiana Care Health Services, Inc., priority 2019, dated 2022).
